Measurements taken from patent US11666048B2, “Treatment for plants in conjunction with harvesting” (CORBET SCIENTIFIC, LLC, priority 2017, dated 2023).
“And” between values parts separate entries of the source, which are not always exact repeats. Equal entries are not always repeated. “Also recorded” adds a separate entry of the source.

Key:
harvested grapefruit [1] = assay: Post-harvest water-loss protection in fruit (Example 5); format: in vivo; conditions: ambient storage
Protocol: Grapefruit trees were separated into three groups. […] Spray treatment formulations were applied using a commercial air-blast sprayer (250 gallons/acre). Size 40 fruit were harvested in quadruplicate, washed, and waxed on Day 0. The washed and waxed fruit as then stored at ambient conditions (approximately 70-75° F.) for 40 days. Size 40 fruit harvested on Day 1 were left unwashed and unwaxed prior to storage (unwashed and unwaxed samples). To test the ability of the aqueous formulation of the present invention to protect harvested fruit from water loss, stored fruit were observed 8 and 20 days after harvest.

Anthracnose = assay: Post-harvest disease protection in fruit: Anthracnose (Example 5); format: in vivo, grapefruit; conditions: after 40 days in storage
Protocol: (§1) Grapefruit trees were separated into three groups. […] Spray treatment formulations were applied using a commercial air-blast sprayer (250 gallons/acre). Size 40 fruit were harvested in quadruplicate, washed, and waxed on Day 0. The washed and waxed fruit as then stored at ambient conditions (approximately 70-75° F.) for 40 days. Size 40 fruit harvested on Day 1 were left unwashed and unwaxed prior to storage (unwashed and unwaxed samples). After 40 days in storage, no significant differences were observed between treated and untreated fruit in terms of the percentage of healthy fruit and the percentage of total decay in the two groups.

harvested grapefruit [2] = assay: Post-harvest disease protection in fruit: healthy fruit, total decay, stem-end rind breakdown (Example 5); format: in vivo; conditions: after 40 days in storage
Protocol: as §1

Diplodia = assay: Post-harvest disease protection in fruit: Diplodia (Example 5); format: in vivo, grapefruit; conditions: after 40 days in storage
Protocol: as §1

Green Mold = assay: Post-harvest disease protection in fruit: Green Mold (Example 5); format: in vivo, grapefruit; conditions: after 40 days in storage
Protocol: as §1

harvested grapefruit [3] = assay: Water retention and disease protection in harvested grapefruit, pre-harvest spray (Example 3); format: in vivo
Protocol: Grapefruit trees were separated into three groups. Fruit in Groups 2 and 3 were treated prior to harvesting. Group 3 was treated with an aqueous treatment formulation comprising 95.70 wt % water, 2.00 wt % ACUSOL® 823, 0.10 wt % PVA (100,000 MW), 0.10 wt % ZnSO4 monohydrate, 0.10 wt % Antifoam® 8810, and 2.00 wt % TEA. […] Group 1 was untreated and served as a control. Groups 2 and 3 fruit were spray treated on Day −14 in the grove. Fruit was not de-greened. Fruit was weighed on Day 0, prior to packaging. Size 27-36 fruit were packed in honeycomb cartons, whereas size 40 fruit was packed in regular 4/5 cartons. Packed fruit was inspected on Day 68.

[4] = average over cartons of the group

## O=P([O-])([O-])O.[K+].[K+] [DKP, di-potassium phosphate]
Harvested grapefruit [1]; not washed and waxed
  Wt. Loss (%) Day 8: 1.43 a %
  Wt. Loss (%) Day 20: 4.08 a %
Harvested grapefruit [1]; washed and waxed
  Wt. Loss (%) Day 8: 1.11 c %
  Wt. Loss (%) Day 20: 3.89 a %
Anthracnose
  Disease Anthracnose (%): 5.9%
Harvested grapefruit [2]
  SERB (stem-end rind breakdown) (%): 7.15% and 7.15 ab %
  Total Decay (%): 16.31%
Harvested grapefruit [2]; washed and waxed fruit
  Healthy (%): 77.15%
Diplodia
  Disease Diplodia (%): 6.5%
Green Mold
  Disease Green Mold (%): 3.96%

## O=P([O-])(O)O.[K+] [MKP, mono potassium phosphate]
Harvested grapefruit [3]; [4]
  Average Weight Difference (%): 12.5%
  Average Δ Weight (lbs): 5 lbs
Harvested grapefruit [3]; fruit size 27, Day 0 to Day 54
  Weight Difference (%): 11%
  Δ Weight (lbs): 4.4 lbs and 4.6 lbs
Harvested grapefruit [3]; fruit size 32, Day 0 to Day 54
  Weight Difference (%): 14% and 13%
  Δ Weight (lbs): 5.6 lbs and 5.2 lbs
Harvested grapefruit [3]; fruit size 32, fruit per carton at inspection
  Disease (puncture): 1 puncture
Harvested grapefruit [3]; fruit size 36, Day 0 to Day 54
  Weight Difference (%): 14%
  Δ Weight (lbs): 5.6 lbs and 5.8 lbs
Harvested grapefruit [3]; fruit size 36, fruit per carton at inspection
  Disease: 4 rot and 3 rot
Harvested grapefruit [3]; fruit size 40, Day 0 to Day 54
  Weight Difference (%): 12% and 11%
  Δ Weight (lbs): 4.6 lbs and 4.2 lbs
Harvested grapefruit [3]; fruit size 40, fruit per carton at inspection
  Disease: 1 rot
Harvested grapefruit [3]; packed fruit at inspection
  shine and firmness compared with control: negligible
Harvested grapefruit [3]; remarks printed beside carton lines, probably for the whole group, footnote: ⅔ fruit per carton were very firm
  Fruit Condition: no shine; also recorded: Like control; also recorded: very soft
